Values quoted from earlier work in patent US20040110774A1, “Methods and formulations of using A1 adenosine receptor antagonists and P2x purinoceptor antagonists for the treatment and prevention of immune system disorders” (priority 2001, published 2004).
One block for each molecule: values may come before it.

Columns and labels:
A1 adenosine receptor = molecular target: T1, A1 adenosine receptor (Homo sapiens, UniProt P30542); details: in tissues
T1 sequence (P30542 1-326): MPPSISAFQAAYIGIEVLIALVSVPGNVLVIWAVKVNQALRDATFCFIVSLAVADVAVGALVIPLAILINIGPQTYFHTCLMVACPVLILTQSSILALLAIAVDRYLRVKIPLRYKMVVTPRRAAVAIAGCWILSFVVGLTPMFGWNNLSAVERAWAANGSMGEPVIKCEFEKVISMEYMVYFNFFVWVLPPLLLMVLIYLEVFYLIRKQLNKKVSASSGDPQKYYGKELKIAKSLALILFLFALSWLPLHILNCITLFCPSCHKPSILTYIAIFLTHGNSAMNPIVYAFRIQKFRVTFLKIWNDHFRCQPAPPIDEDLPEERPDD

RAW 264.7 macrophages = details: LPS-stimulated RAW 264.7 macrophages

nonspecific binding (A1 adenosine receptor): less than 1%
Compound: CCCn1c(=O)c2[nH]c(C3CCCC3)nc2n(CCC)c1=O [DPCPX, 1,3-dipropyl-8-cyclopentylxanthine]

Compound: Cc1nc(N=Nc2ccc(S(=O)(=O)O)cc2S(=O)(=O)O)c(COP(=O)(O)O)c(C=O)c1O [PPADS, pyridoxal-phosphate-6-azophenyl-2′,4′-disulphonic acid]
effect of LPS on the expression of iNOS (iNOS): prevent the effect of LPS on the expression of iNOS

Compound: Nc1ncnc2c1ncn2[C@@H](C=O)O[C@@H](C=O)COP(=O)(O)OP(=O)(O)OP(=O)(O)O [o-ATP, Periodate oxidized adenosine 5′-triphosphate]
NF-kappa-B-like binding activity (RAW 264.7 macrophages): inhibit NF-kappa-B-like binding activity
effects of LPS on nitric oxide (NO) production (RAW 264.7 macrophages): inhibit the effects of LPS on nitric oxide (NO) production
expression of inducible nitric oxide synthase (iNOS) (RAW 264.7 macrophages): inhibit the expression of inducible nitric oxide synthase (iNOS)
